# Experimental data from patent US9206161B2, “Bridged bicyclic heteroaryl substituted triazoles useful as Axl inhibitors” (Rigel Pharmaceuticals, Inc., priority 2008, dated 2015).
# pIC50: −log10 of the molar value.
# Biological target: T1, Axl (Homo sapiens, UniProt P30530)
# T1 construct: endogenous in cells; host or cells: HeLa cells
# T1 sequence (P30530 26-894): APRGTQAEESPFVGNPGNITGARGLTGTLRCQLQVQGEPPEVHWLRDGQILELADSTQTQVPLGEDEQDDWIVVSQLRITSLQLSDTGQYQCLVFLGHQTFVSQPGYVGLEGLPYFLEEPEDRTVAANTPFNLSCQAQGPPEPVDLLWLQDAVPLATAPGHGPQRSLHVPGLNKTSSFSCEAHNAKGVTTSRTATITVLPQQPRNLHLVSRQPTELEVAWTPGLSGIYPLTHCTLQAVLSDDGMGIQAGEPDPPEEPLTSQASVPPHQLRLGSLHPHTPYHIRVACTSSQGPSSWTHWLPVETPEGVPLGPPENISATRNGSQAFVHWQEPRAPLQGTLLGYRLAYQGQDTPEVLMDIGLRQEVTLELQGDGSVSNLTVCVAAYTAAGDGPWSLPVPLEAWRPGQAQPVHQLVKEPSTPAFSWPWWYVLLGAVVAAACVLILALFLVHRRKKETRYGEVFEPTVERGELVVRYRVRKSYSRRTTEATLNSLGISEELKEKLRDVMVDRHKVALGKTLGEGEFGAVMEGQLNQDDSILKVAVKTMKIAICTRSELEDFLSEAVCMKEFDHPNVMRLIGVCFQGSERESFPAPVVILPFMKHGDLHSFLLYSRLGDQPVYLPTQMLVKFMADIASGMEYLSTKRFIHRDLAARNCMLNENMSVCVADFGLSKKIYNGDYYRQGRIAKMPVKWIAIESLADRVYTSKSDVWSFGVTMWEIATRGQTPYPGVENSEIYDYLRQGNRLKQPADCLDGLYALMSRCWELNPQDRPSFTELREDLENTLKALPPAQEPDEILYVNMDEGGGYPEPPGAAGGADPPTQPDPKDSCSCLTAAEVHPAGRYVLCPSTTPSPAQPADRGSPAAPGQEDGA
# Assay: Phospho-Akt in-cell Western assay
# Assay type: cell-based
# Conditions: Hela cells, Axl antibody cross-linking stimulation, phospho-Akt readout
# Procedure: Phospho-Akt in-Cell Western Assay
# The compounds of the invention were tested in the following assay for their ability to inhibit Axl activity.
# • Cell culture plate: 96 well assay plate (Corning 3610), white, clear bottom, tissue-culture treated. • Cells: Hela cells. • Starvation medium: For Axl stimulation: 0.5% FCS (fetal calf serum) in DMEM, plus Axl/Fc (extracellular domain of AXL fused to immunoglobulin Fc region) (R&D, 154-AL) 500 ng/mL. • For EGF (epidermal growth factor) stimulation: 0.5% FCS in DMEM (Dulbecco's modified Eagles medium). • Poly-L-Lysine 0.01% solution (the working solution): 10 μg/ml, dilute In PBS (phosphate buffered saline). • Axl antibody cross-linking: • 1st: Mouse anti-Axl (R&D, MAB154). • 2nd: Biotin-SP-conjugated AffiniPure goat anti-mouse IgG (H+L) (Jackson ImmunoResearch #115-065-003). • Fixing buffer: 4% formaldehyde in PBS. • Wash buffer: 0.1% TritonX-100 in PBS. • Quenching buffer: 3% H2O2, 0.1% Azide in wash buffer, Azide and hydrogen peroxide (H2O2) are added fresh. • Blocking buffer: 5% BSA in TBST (tris buffered saline plus 0.1% Tween 20). • Primary antibody: Rabbit anti-human Phospho-Akt antibody (Cell Signaling 9271): 1×250 diluted in blocking buffer. • Secondary antibody: HRP (horse radish peroxidase)-conjugated Goat anti-Rabbit secondary, stock solution: Jackson ImmunoResearch (Goat anti-Rabbit HRP, #111-035-144) 1:1 diluted in glycerol, store at −20° C. The working solution: 1×2000 dilution of stock in blocking buffer. • Chemiluminescent working solution (Pierce, 37030): SuperSignal ELISA (enzyme linked immunosorbant assay) Pico Chemiluminescent substrate. • Crystal Violet solution: Stock: 2.5% Crystal violet in methanol, filtered and kept at ambient temperature. The working solution: dilute the stock 1:20 with PBS immediately before use. • 10% SDS: working solution: 5% SDS (sodium dodecylsulfate), diluted in PBS Methods: Day 1:
# A 96 well TC (tissue culture treated) plate was coated with 10 μg/mL poly-L-Lysine at 37° C. for 30 min, washed twice with PBS, and air-dried for 5 minutes before cells were added. Hela cells were seeded at 10,000 cells/well and the cells were starved in 100 μL starvation medium containing Axl/Fc for 24 hrs.
# The cells were pre-treated with test compounds by adding 100 μL of 2× test compound to the starvation medium on the cells. The cells were incubated at 37° C. for 1 hr before stimulation.
# The cells were stimulated by Axl-antibody cross-linking as follows: A 5×1st/2nd Axl antibody mixture was made (37.5 μg/mL 1st/100 μg/mL 2nd) in starvation medium and nutated at 4° C. with thorough mixing for 1-2 hours for clustering. The resulting mix was warmed to 37° C. 50 μL of 5× Axl 1st/2nd of antibody cluster was added to the cells and the cells were incubated at 37° C. for 5 min.
# After 5 minutes stimulation, the plate was flicked to remove medium and the plate was tapped onto paper towels. Formaldehyde (4.0% in PBS, 100 μL) was added to fix the cells and the cells were incubated at ambient temperature for 20 min without shaking.
# The cells were washed with a plate washer buffer to remove the formaldehyde solution. The plate was flicked to removed excess wash buffer and tapped onto paper towels. Quenching buffer (100 μL) was added to each well and the cells were incubated at ambient temperature for 20 minutes without shaking.
# The cells were washed with a plate washer buffer to remove the quenching buffer. Blocking buffer (100 μL) was added and the cells were incubated at ambient temperature for at least an hour with gentle shaking.
# The cells were washed with a plate washer buffer and diluted primary antibody (50 μL) was added to each well (blocking buffer was added to the negative control wells instead). The plates were incubated overnight at 4° C. with gentle shaking.
# The wash buffer was removed, diluted secondary antibody (100 μL) was added, and the cells were incubated at ambient temperature for 1 hour with gentle shaking. […]
smiles,measurement,setting,value
"CC(C)CN[C@H]1CCc2ccc(Nc3nc(N)n(-c4cc(-c5ccccc5)c5c(n4)C4CCN5CC4)n3)cc2CC1 [Compound 40, (7S)-1-(1,4-ethano-8-phenyl-1,2,3,4-tetrahydro-1,5-naphthyridin-6-yl)-N^3-(7-(isobutylamino)-6,7,8,9-tetrahydro-5H-benzo[7]annulene-2-yl)-1H-1,2,4-triazole-3,5-diamine]",pIC50,"Table 4, formula (III)",> 6.00
"Nc1nc(Nc2ccc(N3CCC(N4CCCC4)CC3)c(F)c2)nn1-c1nnc(Cl)c2c1C1CCC2CC1 [Compound 13, 1-(4-chloro-5,8-ethano-5,6,7,8-tetrahydrophthalazine-1-yl)-N^3-(4-(4-(pyrrolidin-1-yl)piperidinyl)-3-fluorophenyl)-1H-1,2,4-triazole-3,5-diamine]",pIC50,"Table 5, formula (IVa)",> 6.00
"C[C@H]1CN(c2ccc(Nc3nc(N)n(-c4nnc(-c5ccccc5)c5c4C4CCC5CC4)n3)cn2)CCN1CC1CC1 [Compound 21, (3S)-1-(4-phenyl-5,8-ethano-5,6,7,8-tetrahydrophthalazine-1-yl)-N^3-(6-(4-(cyclopropylmethyl)-3-methylpiperazin-1-yl)pyridin-3-yl)-1H-1,2,4-triazole-3,5-diamine]",pIC50,"Table 7, formula (V)",5.00 to 6.00
"Nc1nc(Nc2ccc3c(c2)CCC(N2CCCC2)CC3)nn1-c1nnc(-c2ccccc2)c2c1C1CCC2CC1 (centres unmarked) [Compound 28, 1-(4-phenyl-5,8-ethano-5,6,7,8-tetrahydrophthalazine-1-yl)-N^3-(7-(pyrrolidin-1-yl)-6,7,8,9-tetrahydro-5H-benzo[7]annulene-2-yl)-1H-1,2,4-triazole-3,5-diamine]",pIC50,"Table 8, formula (VI)",> 6.00
"C[C@H]1CN(c2ccc(Nc3nc(N)n(-c4nnc(-c5ccccc5Cl)c5c4C4CCC5CC4)n3)cn2)CCN1CC1CC1 [Compound 22, (3S)-1-(4-(2-chlorophenyl)-5,8-ethano-5,6,7,8-tetrahydrophthalazine-1-yl)-N^3-(6-(4-(cyclopropylmethyl)-3-methylpiperazin-1-yl)pyridin-3-yl)-1H-1,2,4-triazole-3,5-diamine]",pIC50,"Table 7, formula (V)",> 6.00
"CCCN(CCC)[C@H]1CCc2ccc(Nc3nc(N)n(-c4cc(-c5ccccc5)c5c(n4)C4CCN5CC4)n3)cc2CC1 [Compound 39, (7S)-1-(1,4-ethano-8-phenyl-1,2,3,4-tetrahydro-1,5-naphthyridin-6-yl)-N^3-(7-(dipropylamino)-6,7,8,9-tetrahydro-5H-benzo[7]annulene-2-yl)-1H-1,2,4-triazole-3,5-diamine]",pIC50,"Table 4, formula (III)",> 6.00
"CN(C)CC(=O)NC1CCc2ncc(Nc3nc(N)n(-c4cc(-c5ccccc5)c5c(n4)C4CCN5CC4)n3)cc2C1 (centres unmarked) [Compound 3, 1-(1,4-ethano-8-phenyl-1,2,3,4-tetrahydro-1,5-naphthyridin-6-yl)-N^3-(6-[(((dimethyl)amino)methyl)carbonylamino]-5,6,7,8-tetrahydroquinoline-3-yl)-1H-1,2,4-triazole-3,5-diamine]",pIC50,"Table 1, formula (Ia)",> 6.00
"COc1cccc(-c2cc(-n3nc(Nc4ccc(N5CCC(N6CCCC6)CC5)c(F)c4)nc3N)nc3c2N2CCC3CC2)c1 [Compound 11, 1-(1,4-ethano-8-(3-methoxyphenyl)-1,2,3,4-tetrahydro-1,5-naphthyridin-6-yl)-N^3-(4-(4-(pyrrolidin-1-yl)piperidinyl)-3-fluorophenyl)-1H-1,2,4-triazole-3,5-diamine]",pIC50,"Table 3, formula (II)",> 6.00
"Nc1nc(Nc2cnc3c(c2)CNCC3)nn1-c1cc(-c2ccccc2)c2c(n1)C1CCN2CC1 [Compound 2, 1-(1,4-ethano-8-phenyl-1,2,3,4-tetrahydro-1,5-naphthyridin-6-yl)-N^3-(5,6,7,8-tetrahydro-1,6-naphthyridine-3-yl)-1H-1,2,4-triazole-3,5-diamine]",pIC50,"Table 2, formula (Ib)",> 6.00
"CC(C)N[C@H]1CCc2ccc(Nc3nc(N)n(-c4cc(-c5ccccc5)c5c(n4)C4CCN5CC4)n3)cc2CC1 [Compound 37, (7S)-1-(1,4-ethano-8-phenyl-1,2,3,4-tetrahydro-1,5-naphthyridin-6-yl)-N^3-(7-(isopropylamino)-6,7,8,9-tetrahydro-5H-benzo[7]annulene-2-yl)-1H-1,2,4-triazole-3,5-diamine]",pIC50,"Table 4, formula (III)",> 6.00
"CN(C)[C@H]1CCc2ccc(Nc3nc(N)n(-c4cc(-c5ccccc5)c5c(n4)C4CCN5CC4)n3)cc2CC1 [Compound 36, (7S)-1-(1,4-ethano-8-phenyl-1,2,3,4-tetrahydro-1,5-naphthyridin-6-yl)-N^3-(7-(dimethylamino)-6,7,8,9-tetrahydro-5H-benzo[7]annulene-2-yl)-1H-1,2,4-triazole-3,5-diamine]",pIC50,"Table 4, formula (III)",< 4.70
"C[C@H]1CN(c2ccc(Nc3nc(N)n(-c4nnc(-c5ccncc5)c5c4C4CCC5CC4)n3)cn2)CCN1CC1CC1 [Compound 24, (3S)-1-(4-(pyridin-4-yl)-5,8-ethano-5,6,7,8-tetrahydrophthalazine-1-yl)-N^3-(6-(4-(cyclopropylmethyl)-3-methylpiperazin-1-yl)pyridin-3-yl)-1H-1,2,4-triazole-3,5-diamine]",pIC50,"Table 7, formula (V)",5.00 to 6.00
"Nc1nc(Nc2ccc3c(c2)CC[C@@H](NC2CCC2)CC3)nn1-c1cc(-c2ccccc2)c2c(n1)C1CCN2CC1 [Compound 38, (7S)-1-(1,4-ethano-8-phenyl-1,2,3,4-tetrahydro-1,5-naphthyridin-6-yl)-N^3-(7-(cyclobutylamino)-6,7,8,9-tetrahydro-5H-benzo[7]annulene-2-yl)-1H-1,2,4-triazole-3,5-diamine]",pIC50,"Table 4, formula (III)",> 6.00
"CC(C)CN(CC(C)C)[C@H]1CCc2ccc(Nc3nc(N)n(-c4cc(-c5ccccc5)c5c(n4)C4CCN5CC4)n3)cc2CC1 [Compound 41, (7S)-1-(1,4-ethano-8-phenyl-1,2,3,4-tetrahydro-1,5-naphthyridin-6-yl)-N^3-(7-(diisobutylamino)-6,7,8,9-tetrahydro-5H-benzo[7]annulene-2-yl)-1H-1,2,4-triazole-3,5-diamine]",pIC50,"Table 4, formula (III)",> 6.00
